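At the GI50, growth is halved. TGI marks complete inhibition of growth.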
Columns and labels:
Test in all cases: inhibition of tumour cell growth, NCI panel, 384-well format
[1] = tested on: A498 renal
[2] = tested on: MDA-MB-435 melanoma
[3] = tested on: SF-295 CNS
[4] = tested on: OVCAR-8 ovarian
[5] = tested on: SR leukemia
[6] = tested on: A549 NSCLC
[7] = tested on: TK-10 renal
[8] = tested on: SW-620 colon
[9] = tested on: MDA-MB-468 breast
[10] = tested on: MOLT-4 leukemia
[11] = tested on: SNB-19 CNS
[12] = tested on: SK-MEL-5 melanoma
[13] = tested on: HOP-92 NSCLC
[14] = tested on: CAKI-1 renal
[15] = tested on: SF-539 CNS
[16] = tested on: UO-31 renal
[17] = tested on: NCI-H23 lung
[18] = tested on: T-47D breast
[19] = tested on: SNB-75 CNS
[20] = tested on: NCI-H322M lung
[21] = tested on: SK-OV-3 ovarian
[22] = tested on: OVCAR-5 ovarian
[23] = tested on: MDA-MB-231 breast
[24] = tested on: ACHN renal
[25] = tested on: HCT-15 colon
[26] = tested on: EKVX NSCLC
[27] = tested on: K-562 leukemia
[28] = tested on: UACC-257 melanoma
[29] = tested on: RPMI-8226 leukemia
[30] = tested on: HOP-62 NSCLC
[31] = tested on: NCI-H460 NSCLC
[32] = tested on: PC-3 prostate
[33] = tested on: HS 578T breast
[34] = tested on: U251 glioblastoma
[35] = tested on: HT29 colon
[36] = tested on: SN12C renal
[37] = tested on: HCC-2998 colon
[38] = tested on: NCI-H522 lung
[39] = tested on: NCI/ADR-RES ovarian
[40] = tested on: M14 melanoma
[41] = tested on: RXF 393 renal
[42] = tested on: HL-60(TB) leukemia
[43] = tested on: KM12 colon
[44] = tested on: COLO 205 colon
[45] = tested on: BT-549 breast
[46] = tested on: NCI-H226 lung
[47] = tested on: MALME-3M melanoma
[48] = tested on: SK-MEL-28 melanoma
[49] = tested on: SF-268 CNS
[50] = tested on: UACC-62 melanoma
[51] = tested on: OVCAR-4 ovarian
[52] = tested on: DU-145 prostate
[53] = tested on: OVCAR-3 ovarian
[54] = tested on: IGROV1 ovarian
[55] = tested on: CCRF-CEM leukemia
[56] = tested on: LOX IMVI melanoma
[57] = tested on: MCF7 breast
[58] = tested on: 786-0 renal

CSc1nc(N)cc(Oc2ccc(-c3nc(Nc4cccc(C(F)(F)F)c4)n[nH]3)cc2)n1
GI50 [1]: 421 nM | TGI [1]: 1920 nM | GI50 [2]: 208 nM | TGI [2]: 437 nM | GI50 [3]: 458 nM | TGI [3]: 1900 nM | GI50 [4]: 645 nM | TGI [4]: 2460 nM | GI50 [5]: 174 nM | TGI [5]: 333 nM | GI50 [6]: 625 nM | TGI [6]: 5520 nM | GI50 [7]: 1510 nM | TGI [7]: 6940 nM | GI50 [8]: 431 nM | TGI [8]: 6370 nM | GI50 [9]: 202 nM | TGI [9]: 414 nM | GI50 [10]: 187 nM | TGI [10]: 337 nM | GI50 [11]: 637 nM | TGI [11]: 5170 nM | GI50 [12]: 237 nM | TGI [12]: 550 nM | GI50 [13]: 569 nM | TGI [13]: 3250 nM | GI50 [14]: 548 nM | TGI [14]: 5090 nM | GI50 [15]: 349 nM | TGI [15]: 1350 nM | GI50 [16]: 502 nM | TGI [16]: 14300 nM | GI50 [17]: 352 nM | TGI [17]: 1940 nM | GI50 [18]: 294 nM | TGI [18]: 16900 nM | GI50 [19]: 340 nM | TGI [19]: 1970 nM | GI50 [20]: 1850 nM | TGI [20]: 6780 nM | GI50 [21]: 394 nM | TGI [21]: 2220 nM | GI50 [22]: 2020 nM | TGI [22]: 6290 nM | GI50 [23]: 487 nM | TGI [23]: 10000 nM | GI50 [24]: 618 nM | TGI [24]: 2730 nM | GI50 [25]: 400 nM | TGI [25]: 1450 nM | GI50 [26]: 599 nM | TGI [26]: 4320 nM | GI50 [27]: 320 nM | TGI [27]: 968 nM | GI50 [28]: 284 nM | TGI [28]: 902 nM | GI50 [29]: 179 nM | TGI [29]: 368 nM | GI50 [30]: 452 nM | TGI [30]: 2190 nM | GI50 [31]: 280 nM | TGI [31]: 756 nM | GI50 [32]: 611 nM | TGI [32]: 3090 nM | GI50 [33]: 191 nM | TGI [33]: 423 nM | GI50 [34]: 581 nM | TGI [34]: 2110 nM | GI50 [35]: 354 nM | TGI [35]: 1430 nM | GI50 [36]: 671 nM | TGI [36]: 5100 nM | GI50 [37]: 367 nM | TGI [37]: 1500 nM | GI50 [38]: 241 nM | TGI [38]: 625 nM | GI50 [39]: 676 nM | TGI [39]: 2390 nM | GI50 [40]: 323 nM | TGI [40]: 1210 nM | GI50 [41]: 326 nM | TGI [41]: 1030 nM | GI50 [42]: 180 nM | TGI [42]: 325 nM | GI50 [43]: 425 nM | TGI [43]: 1850 nM | GI50 [44]: 489 nM | TGI [44]: 4120 nM | GI50 [45]: 385 nM | TGI [45]: 1620 nM | GI50 [46]: 1070 nM | TGI [46]: 3630 nM | GI50 [47]: 315 nM | TGI [47]: 1000 nM | GI50 [48]: 582 nM | TGI [48]: 3640 nM | GI50 [49]: 463 nM | TGI [49]: 2520 nM | GI50 [50]: 377 nM | TGI [50]: 2860 nM | GI50 [51]: 457 nM | TGI [51]: 2210 nM | GI50 [52]: 998 nM | TGI [52]: 4080 nM | GI50 [53]: 229 nM | TGI [53]: 492 nM | GI50 [54]: 676 nM | TGI [54]: 3530 nM | GI50 [55]: 175 nM | TGI [55]: 322 nM | GI50 [56]: 523 nM | TGI [56]: 1790 nM | GI50 [57]: 317 nM | TGI [57]: 1840 nM | GI50 [58]: 368 nM | TGI [58]: 1590 nM
